Data taken from US8962630B2, “Pyrrolopyrimidine compounds and their uses” (Novartis AG, priority 2008, dated 2015).

Key:
Assay type in all cases: biochemical
CDK4/cyclin D1 = CDK4/cyclin D1 (Homo sapiens (Human), UniProt P11802); assay: CDK4/Cyclin D1 enzymatic activity assay (Lance TR-FRET); details: Table 2; 3 μM ATP; read-out: CDK4
Method: A 384-well microtiter Lance TR-FRET (time-resolved-fluorescence energy transfer) endpoint assay was used for CDK4/cyclin D1 kinase activity measurements. The same assay was used for IC50 determination of small molecule inhibitors. In general, the kinase reactions were carried out in 30 μL volumes in the reaction solution containing the following: 2 uL compound (in […]), 18 uL CDK4/cyclin D1 in Assay Buffer (50 mM HEPES, pH 7.5, 5 mM MgCl2, 2 mM MnCl2, 1 mM DTT, 0.05% BSA, 0.02% Tween-20), 10 uL of the mixture of pRb152 and ATP. The final reaction mixture contains compound (inhibitor) with the concentration varying from 0.005-10 μM, 2% DMSO, 0.3 nM CDK4/cyclin D1, 175 nM pRb152, and 3 μM ATP (Amersham Pharmacia, Cat. No. 27-2056-01). All reactions were run at room temperature in 384-well white flat-bottom OptiPlates (Perkin Elmer, Cat. No. 6007290) for 60 min then were quenched by the addition of 10 μL of 120 mM EDTA. The signals were captured by the addition of 40 μL of the Detection Solution containing the following: Detection Buffer (50 mM HEPES, pH 7.5, 30 mM EDTA, 0.1% Triton x-100, 0.05% BSA), 70 ng/mL anti-phospho-pRb(S780) (Cell Signaling Technology, Cat. No. 9307S), 1 nM Lance Eu-W1024-Rabbit anti-IgG (Perkin Elmer, Cat. No. AD0082), and 20 nM SureLight™ Allophycocyanin-Streptavidin (Perkin Elmer, Cat. No. CR130-100). The resulted solutions were incubated at room temperature for 2 hours before read on the Evision Multilabel Reader (Perkin Elmer, Envision 2102-0010).
CDk4/cyclin D1 recombinant protein used in the enzymatic activity assay was prepared by coexpressing pDEST10-CDK4 (N-terminal His6) and pFastBacDual-GST-hCyclinDl viruses in Sf21 cells.

CDK1/cyclin B = CDK1/cyclin B (Homo sapiens (Human), UniProt P06493); assay: CDK1/Cyclin B enzymatic activity assay (IMAP-FP); details: Table 2; 20 μM ATP; read-out: CDK1
Chain of CDK1/cyclin B (P06493 whole entry, species assumed): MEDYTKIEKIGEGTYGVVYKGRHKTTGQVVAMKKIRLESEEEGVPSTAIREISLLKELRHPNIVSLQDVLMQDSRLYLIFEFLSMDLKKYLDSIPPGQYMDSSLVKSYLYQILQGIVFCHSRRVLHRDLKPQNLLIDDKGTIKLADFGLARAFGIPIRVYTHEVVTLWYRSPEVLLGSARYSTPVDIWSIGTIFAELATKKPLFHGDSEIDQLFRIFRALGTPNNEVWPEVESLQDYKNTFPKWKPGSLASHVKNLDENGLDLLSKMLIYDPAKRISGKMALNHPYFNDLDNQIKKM
Chain of CDK1/cyclin B (P14635 whole entry partner, species assumed): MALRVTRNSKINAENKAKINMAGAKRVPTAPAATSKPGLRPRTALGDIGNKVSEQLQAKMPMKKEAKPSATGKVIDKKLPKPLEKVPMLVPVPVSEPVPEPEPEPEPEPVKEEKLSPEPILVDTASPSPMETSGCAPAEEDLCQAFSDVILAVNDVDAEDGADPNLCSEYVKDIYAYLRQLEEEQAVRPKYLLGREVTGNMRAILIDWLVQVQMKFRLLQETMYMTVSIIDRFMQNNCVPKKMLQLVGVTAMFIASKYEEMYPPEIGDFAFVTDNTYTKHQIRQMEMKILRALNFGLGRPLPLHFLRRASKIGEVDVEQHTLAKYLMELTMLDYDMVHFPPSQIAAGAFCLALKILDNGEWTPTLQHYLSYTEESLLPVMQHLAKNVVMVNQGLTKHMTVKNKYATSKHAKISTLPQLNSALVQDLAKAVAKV
From the text: A 384-well microtiter IMAP-FPT™ (Molecular Devices Trade Mark Technology) endpoint assay was used for CDK1/cyclin B kinase activity measurements. The same assay was used for IC50 determination of small molecule inhibitors.

CDK2/cyclin A = CDK2/cyclin A (Homo sapiens (Human), UniProt P24941); assay: CDK2/Cyclin A enzymatic activity assay (IMAP-FP); details: Table 2; read-out: CDK2

Chain of CDK4/cyclin D1 (P11802 whole entry): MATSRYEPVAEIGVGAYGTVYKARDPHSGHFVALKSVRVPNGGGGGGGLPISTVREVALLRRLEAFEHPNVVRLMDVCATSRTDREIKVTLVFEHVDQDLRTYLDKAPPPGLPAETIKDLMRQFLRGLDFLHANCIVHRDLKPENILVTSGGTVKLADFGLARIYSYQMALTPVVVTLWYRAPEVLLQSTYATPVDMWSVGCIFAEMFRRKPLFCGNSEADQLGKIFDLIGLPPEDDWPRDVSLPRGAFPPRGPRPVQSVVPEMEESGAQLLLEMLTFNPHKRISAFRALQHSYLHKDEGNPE
Chain of CDK4/cyclin D1 (P24385 whole entry partner): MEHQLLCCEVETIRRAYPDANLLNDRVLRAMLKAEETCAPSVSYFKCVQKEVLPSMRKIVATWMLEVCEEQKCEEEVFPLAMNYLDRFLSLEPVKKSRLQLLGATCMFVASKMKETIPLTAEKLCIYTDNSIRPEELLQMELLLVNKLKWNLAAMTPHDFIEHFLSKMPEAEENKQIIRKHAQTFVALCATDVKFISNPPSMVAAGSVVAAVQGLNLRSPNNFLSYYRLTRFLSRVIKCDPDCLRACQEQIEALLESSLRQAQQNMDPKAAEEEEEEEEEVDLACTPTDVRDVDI

**Q.** With `CN(C)C(=O)c1cc2cnc(Nc3cnc(N4CCN(CCO)CC4)cn3)nc2n1C1CCCC1` [Example 15, 7-Cyclopentyl-2-[4-(2-hydroxy-ethyl)-3,4,5,6-tetrahydro-2H-[1,2]′bipyrazinyl-5′-ylamino]-7H-pyrrolo[2,3-d]pyrimidine-6-carboxylic acid dimethylamide] as the compound, how does the IC50 (CDK4/cyclin D1) read?
**A.** 0.1 to 1 µM

**Q.** And the IC50 (CDK1/cyclin B)?
**A.** > 15 µM

**Q.** And the IC50 (CDK2/cyclin A)?
**A.** > 15 µM

**Q.** With `CN(C)C(=O)c1cc2cnc(Nc3ccc(N4CCNC(C)(C)C4)cn3)nc2n1C1CCCC1` [Example 72, 7-Cyclopentyl-2-[5-(3,3-dimethyl-piperazin-1-yl)-pyridin-2-ylamino]-7H-pyrrolo[2,3-d]pyrimidine-6-carboxylic acid dimethylamide] as the compound, how does the IC50 (CDK4/cyclin D1) read?
**A.** 0.01 to 0.1 µM

**Q.** And the IC50 (CDK1/cyclin B)?
**A.** > 15 µM

**Q.** And the IC50 (CDK2/cyclin A)?
**A.** > 15 µM

**Q.** With `CN(C)C(=O)c1cc2cnc(Nc3ccc(C(=O)N4CCNCC4)cn3)nc2n1C1CCCC1` [Example 49, 7-Cyclopentyl-2-[5-(piperazine-1-carbonyl)-pyridin-2-ylamino]-7H-pyrrolo[2,3-d]pyrimidine-6-carboxylic acid dimethylamide] as the compound, how does the IC50 (CDK4/cyclin D1) read?
**A.** 0.01 to 0.1 µM

**Q.** And the IC50 (CDK1/cyclin B)?
**A.** > 15 µM

**Q.** What about the IC50 (CDK2/cyclin A) of the same compound?
**A.** > 15 µM

**Q.** For `C[C@@H]1CN(c2ccc(Nc3ncc4cc(C(=O)N(C)C)n(C5CCCC5)c4n3)nc2)CCN1C(=O)OC(C)(C)C` [Example 30, (R)-4-[6-(7-Cyclopentyl-6-dimethylcarbamoyl-7H-pyrrolo[2,3-d]pyrimidin-2-ylamino)-pyridin-3-yl]-2-methyl-piperazine-1-carboxylic acid tert-butyl ester], which IC50 (CDK4/cyclin D1) is on record?
**A.** 0.1 to 1 µM

**Q.** What about the IC50 (CDK1/cyclin B) of the same compound?
**A.** > 15 µM

**Q.** And the IC50 (CDK2/cyclin A)?
**A.** > 15 µM

**Q.** With `CN(C)C(=O)c1cc2cnc(Nc3ccc(N4CCN(C[C@H](O)CO)CC4)cn3)nc2n1C1CCCC1` [Example 29, 7-Cyclopentyl-2-{5-[4-((S)-2,3-dihydroxy-propyl)-piperazin-1-yl]-pyridin-2-ylamino}-7H-pyrrolo[2,3-d]pyrimidine-6-carboxylic acid dimethylamide] as the compound, how does the IC50 (CDK4/cyclin D1) read?
**A.** 0.01 to 0.1 µM

**Q.** And the IC50 (CDK1/cyclin B)?
**A.** 15 µM

**Q.** And the IC50 (CDK2/cyclin A)?
**A.** > 15 µM

**Q.** With `CC(C)OCCN1CCN(c2ccc(Nc3ncc4cc(C(=O)N(C)C)n(C5CCCC5)c4n3)nc2)CC1` [Example 95, 7-Cyclopentyl-2-{5-[4-(2-isopropoxy-ethyl)-piperazin-1-yl]-pyridin-2-ylamino}-7H-pyrrolo[2,3-d]pyrimidine-6-carboxylic acid dimethylamide] as the compound, how does the IC50 (CDK4/cyclin D1) read?
**A.** 0.01 to 0.1 µM

**Q.** And the IC50 (CDK1/cyclin B)?
**A.** > 15 µM

**Q.** And the IC50 (CDK2/cyclin A)?
**A.** > 15 µM

**Q.** What does the source list for `CN(C)C(=O)c1cc2cnc(Nc3ccc(N4CCN(CCF)CC4)cn3)nc2n1C1CCCC1` [Example 86, 7-Cyclopentyl-2-{5-[4-(2-fluoro-ethyl)-piperazin-1-yl]-pyridin-2-ylamino}-7H-pyrrolo[2,3-d]pyrimidine-6-carboxylic acid dimethylamide]?
**A.** IC50 (CDK4/cyclin D1): 0.01 to 0.1 µM; IC50 (CDK1/cyclin B): > 15 µM; IC50 (CDK2/cyclin A): > 15 µM

**Q.** Which results are given for `CN(C)C(=O)c1cc2cnc(Nc3ccc(C(=O)N4CCC(O)CC4)cn3)nc2n1C1CCCC1` [Example 87, 7-Cyclopentyl-2-[5-(4-hydroxy-piperidine-1-carbonyl)-pyridin-2-ylamino]-7H-pyrrolo[2,3-d]pyrimidine-6-carboxylic acid dimethylamide]?
**A.** IC50 (CDK4/cyclin D1): 0.01 to 0.1 µM; IC50 (CDK1/cyclin B): 13 µM; IC50 (CDK2/cyclin A): > 15 µM

**Q.** What does the source list for `CN(C)C(=O)c1cc2cnc(Nc3ccc(N4CCN(CCO)CC4)nn3)nc2n1C1CCCC1` [Example 37, 7-Cyclopentyl-2-{6-[4-(2-hydroxy-ethyl)-piperazin-1-yl]-pyridazin-3-ylamino}-7H-pyrrolo[2,3-d]pyrimidine-6-carboxylic acid dimethylamide]?
**A.** IC50 (CDK4/cyclin D1): 0.01 to 0.1 µM; IC50 (CDK1/cyclin B): > 15 µM; IC50 (CDK2/cyclin A): > 15 µM

**Q.** For `C[C@H]1CN(c2ccc(Nc3ncc4cc(C(=O)N(C)C)n(C5CCCC5)c4n3)nc2)CCN1` [Example 17, 7-Cyclopentyl-2-[5-((S)-3-methyl-piperazin-1-yl)-pyridin-2-ylamino]-7H-pyrrolo[2,3-d]pyrimidine-6-carboxylic acid dimethylamide], which IC50 (CDK4/cyclin D1) is on record?
**A.** 0.01 to 0.1 µM

**Q.** What about the IC50 (CDK1/cyclin B) of the same compound?
**A.** > 15 µM

**Q.** What about the IC50 (CDK2/cyclin A) of the same compound?
**A.** > 15 µM

**Q.** For `CN(C)C(=O)c1cc2cnc(Nc3ccc(N4CCN(C5CCCC5)CC4)cn3)nc2n1C1CCCC1` [Example 79, 7-Cyclopentyl-2-[5-(4-cyclopentyl-piperazin-1-yl)-pyridin-2-ylamino]-7H-pyrrolo[2,3-d]pyrimidine-6-carboxylic acid dimethylamide], which IC50 (CDK4/cyclin D1) is on record?
**A.** 0.01 to 0.1 µM

**Q.** What about the IC50 (CDK1/cyclin B) of the same compound?
**A.** > 15 µM

**Q.** What about the IC50 (CDK2/cyclin A) of the same compound?
**A.** > 15 µM

**Q.** How did the IC50 (CDK4/cyclin D1) turn out when `CN(C)C(=O)c1cc2cnc(Nc3ccc(N4CCN(CC(F)(F)F)CC4)cn3)nc2n1C1CCCC1` [Example 25, 7-Cyclopentyl-2-{5-[4-(2,2,2-trifluoro-ethyl)-piperazin-1-yl]-pyridin-2-ylamino}-7H-pyrrolo[2,3-d]pyrimidine-6-carboxylic acid dimethylamide] was run?
**A.** 0.01 to 0.1 µM

**Q.** And the IC50 (CDK1/cyclin B)?
**A.** > 15 µM

**Q.** What about the IC50 (CDK2/cyclin A) of the same compound?
**A.** > 15 µM

**Q.** What does the source list for `CC(=O)N1CCN(c2ccc(Nc3ncc4cc(C(=O)N(C)C)n(C5CCCC5)c4n3)nc2)CC1` [Example 7, 2-[5-(4-Acetylpiperazin-1-yl)-pyridin-2-ylamino]-7-cyclopentyl-7H-pyrrolo[2,3-d]pyrimidine-6-carboxylic acid dimethylamide]?
**A.** IC50 (CDK4/cyclin D1): 0.01 to 0.1 µM; IC50 (CDK1/cyclin B): > 15 µM; IC50 (CDK2/cyclin A): > 15 µM

**Q.** For `CN(C)CC(=O)N1CCN(c2ccc(Nc3ncc4cc(C(=O)N(C)C)n(C5CCCC5)c4n3)nc2)CC1` [Example 88, 7-Cyclopentyl-2-{5-[4-(2-dimethylamino-acetyl)-piperazin-1-yl]-pyridin-2-ylamino}-7H-pyrrolo[2,3-d]pyrimidine-6-carboxylic acid dimethylamide], which IC50 (CDK4/cyclin D1) is on record?
**A.** 0.001 to 0.01 µM

**Q.** What about the IC50 (CDK1/cyclin B) of the same compound?
**A.** > 15 µM

**Q.** And the IC50 (CDK2/cyclin A)?
**A.** > 15 µM

**Q.** With `CN(C)C(=O)c1cc2cnc(Nc3ccc(C(=O)NC4CCNCC4)cn3)nc2n1C1CCCC1` [Example 3, 7-Cyclopentyl-2-[5-(piperidin-4-ylcarbamoyl)-pyridin-2-ylamino]-7H-pyrrolo[2,3-d]pyrimidine-6-carboxylic acid dimethylamide] as the compound, how does the IC50 (CDK4/cyclin D1) read?
**A.** 0.01 to 0.1 µM

**Q.** And the IC50 (CDK1/cyclin B)?
**A.** > 15 µM

**Q.** And the IC50 (CDK2/cyclin A)?
**A.** > 15 µM

**Q.** For `CN(C)C(=O)c1cc2cnc(Nc3ccc(CN4CCN(C)C(=O)C4)cn3)nc2n1C1CCCC1` [Example 60, 7-Cyclopentyl-2-[5-(4-methyl-3-oxo-piperazin-1-ylmethyl)-pyridin-2-ylamino]-7H-pyrrolo[2,3-d]pyrimidine-6-carboxylic acid dimethylamide], which IC50 (CDK4/cyclin D1) is on record?
**A.** 0.1 to 1 µM

**Q.** What about the IC50 (CDK1/cyclin B) of the same compound?
**A.** > 15 µM

**Q.** And the IC50 (CDK2/cyclin A)?
**A.** > 15 µM

**Q.** What does the source list for `CCC(C)CN1CCN(c2ccc(Nc3ncc4cc(C(=O)N(C)C)n(C5CCCC5)c4n3)nc2)CC1` (stereo not drawn) [Example 99, 7-Cyclopentyl-2-{5-[4-(2-methyl-butyl)-piperazin-1-yl]-pyridin-2-ylamino}-7H-pyrrolo[2,3-d]pyrimidine-6-carboxylic acid dimethylamide]?
**A.** IC50 (CDK4/cyclin D1): 0.01 to 0.1 µM; IC50 (CDK1/cyclin B): > 15 µM; IC50 (CDK2/cyclin A): > 15 µM

**Q.** What does the source list for `c1ncc(-c2cc3cnc(Nc4ccc(N5CCNCC5)cn4)nc3n2C2CCCC2)o1` [Example 11, (7-Cyclopentyl-6-oxazol-5-yl-7H-pyrrolo[2,3-d]pyrimidin-2-yl)-(5-piperazin-1-yl-pyridin-2-yl)-amine]?
**A.** IC50 (CDK4/cyclin D1): 0.001 to 0.01 µM; IC50 (CDK1/cyclin B): 1.3 µM; IC50 (CDK2/cyclin A): 3.5 µM

**Q.** What does the source list for `CC(C)N1CCN(Cc2ccc(Nc3ncc4cc(C(=O)N(C)C)n(C5CCCC5)c4n3)nc2)CC1` [Example 62, 7-Cyclopentyl-2-[5-(4-isopropyl-piperazin-1-ylmethyl)-pyridin-2-ylamino]-7H-pyrrolo[2,3-d]pyrimidine-6-carboxylic acid dimethylamide]?
**A.** IC50 (CDK4/cyclin D1): 0.01 to 0.1 µM; IC50 (CDK1/cyclin B): > 15 µM; IC50 (CDK2/cyclin A): > 15 µM

**Q.** With `CN(C)C(=O)c1cc2cnc(Nc3ccc(N4CCN(C(=O)OC(C)(C)C)CC4)nn3)nc2n1C1CCCC1` [Example 45, 4-[6-(7-Cyclopentyl-6-dimethylcarbamoyl-7H-pyrrolo[2,3-d]pyrimidin-2-ylamino)-pyridazin-3-yl]-piperazine-1-carboxylic acid tert-butyl ester] as the compound, how does the IC50 (CDK4/cyclin D1) read?
**A.** 0.1 to 1 µM

**Q.** What about the IC50 (CDK1/cyclin B) of the same compound?
**A.** > 15 µM

**Q.** And the IC50 (CDK2/cyclin A)?
**A.** 20 µM

**Q.** Which results are given for `CN(C)C(=O)c1cc2cnc(Nc3ccc(N4CCCNCC4)cn3)nc2n1C1CCCC1` [Example 8, 7-Cyclopentyl-2-(5-[1,4]diazepan-1-yl-pyridin-2-ylamino)-7H-pyrrolo[2,3-d]pyrimidine-6-carboxylic acid dimethylamide]?
**A.** IC50 (CDK4/cyclin D1): 0.01 to 0.1 µM; IC50 (CDK1/cyclin B): 14 µM; IC50 (CDK2/cyclin A): 8 µM

**Q.** With `CN(C)C(=O)c1cc2cnc(Nc3ccc(C(=O)N(C)CCN)cn3)nc2n1C1CCCC1` [Example 41, 2-{5-[(2-Amino-ethyl)-methyl-carbamoyl]-pyridin-2-ylamino}-7-cyclopentyl-7H-pyrrolo[2,3-d]pyrimidine-6-carboxylic acid dimethylamide] as the compound, how does the IC50 (CDK4/cyclin D1) read?
**A.** 0.001 to 0.01 µM

**Q.** What about the IC50 (CDK1/cyclin B) of the same compound?
**A.** 14.8 µM

**Q.** And the IC50 (CDK2/cyclin A)?
**A.** 4.7 µM
